One assay concerns HEK-293 cells. Description: HEK-293 cytotoxicity detection (CellTiter-Glo). The assay is classed as cell-based. The conditions noted are these: Homo sapiens, 72 h, 72 h incubation, CellTiter-Glo luminescence, read-out: HEK293. Here is the method: HEK-293 cells were treated with compounds diluted in 0.2% DMSO, dilution was done according to the following protocol: (1) making 500× stock solution in DMSO from 5 mM by 4-fold dilution, total 8 doses were included; (2) making 2× solution in cell culture medium by transferring 0.5 ul 500× stock solution into 125 ul medium; (3) adding 50 ul of 2× solution to cells for incubation of 72 h.
25 μl of the CellTiter-Glo®Reagent [(Promega)—Cat No. G7572] was added to each well in the 96-well plate. The contents were mixed for 2 minutes on an orbital shaker to induce cell lysis. The plate was then allowed to incubate at room temperature for 10 minutes to stabilize luminescent signal. Luminescence was recorded on BMG PheraStar with luminescence protocol.
The inhibition percentage of the compound was calculated by the following equation: Inhibition percentage of Compound=100−100×(Signal-low control)/(High control-low control), wherein signal=each test compound group
High control=Cell group with added DMSO and without compound, indicating cells proliferation with no inhibition;
Imax is the maximum percentage of inhibition.
The IC50 value of a compound can be obtained by fitting the following equation
(§1) Wherein, X and Y are known values, and IC50, Hillslope, Top and Bottom are the parameters obtained by fitting with software. Y is the inhibition percentage (calculated from the equation), X is the concentration of the compound; IC50 is the concentration of the compound when the 50% inhibition is reached. The smaller the IC50 value is, the stronger the inhibitory ability of the compound is. Vice versa, the higher the IC50 value is, the weaker the ability the inhibitory ability of the compound is; Hillslope represents the slope of the fitted curve, generally around 1*; Bottom represents the minimum value of the curve obtained by data fitting, which is generally 0%±20%; Top represents the maximum value of the curve obtained by data fitting, which is generally 100%±20%. The experimental data were fitted by calculating and analyzing with Dotmatics data analysis software.

The target of a further assay is BTK (Homo sapiens, UniProt Q06187). Description: BTK cell degradation in TMD-8 cells, HTRF assay. The class given is cell-based. Set-up: endogenous in cells; host or cells: TMD-8 cells. The conditions noted are these: 6 h treatment, IC50 (DC50) of BTK degradation. The protocol: TMD-8 cells were treated with compounds diluted in 0.2% DMSO, dilution was done according to the following protocol: (1) making 500× stock solution in DMSO from 1 mM by 6-fold dilution, total 8 doses were included; (2) making 2× solution in cell culture medium by transferring 0.5 μl 500× stock solution into 125 μl medium; (3) adding 15 μl of 2× solution to cells for incubation of 6 h.
Sequence of BTK (Q06187 whole entry): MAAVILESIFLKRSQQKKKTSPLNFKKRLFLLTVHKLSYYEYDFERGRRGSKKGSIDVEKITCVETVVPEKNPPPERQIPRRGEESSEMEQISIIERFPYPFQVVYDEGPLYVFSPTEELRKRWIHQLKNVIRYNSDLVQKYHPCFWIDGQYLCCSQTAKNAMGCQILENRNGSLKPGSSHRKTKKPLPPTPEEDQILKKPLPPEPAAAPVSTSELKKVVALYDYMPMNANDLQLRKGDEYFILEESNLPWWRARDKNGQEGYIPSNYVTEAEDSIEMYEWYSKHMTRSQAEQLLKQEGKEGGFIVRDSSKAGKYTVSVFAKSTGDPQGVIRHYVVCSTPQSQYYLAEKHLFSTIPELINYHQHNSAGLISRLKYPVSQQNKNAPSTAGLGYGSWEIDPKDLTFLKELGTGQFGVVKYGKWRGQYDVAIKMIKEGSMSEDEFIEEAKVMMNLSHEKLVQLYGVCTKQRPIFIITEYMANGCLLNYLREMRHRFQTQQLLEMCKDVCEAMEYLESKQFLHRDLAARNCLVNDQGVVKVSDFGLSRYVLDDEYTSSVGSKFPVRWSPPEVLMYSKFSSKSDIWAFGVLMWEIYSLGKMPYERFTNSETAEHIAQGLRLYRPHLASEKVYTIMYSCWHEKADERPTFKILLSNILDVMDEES
After 6 h treatment, 10 μl 14×lysis buffer was added to each well; the plate was sealed and incubated for 30 min at room temperature on a plate shaker; Once the cells was lysed, 16 μL of cell lysate were transferred to a PE 384-well HTRF detection plate; 4 μL of pre-mixed HTRF antibodies were added to each well; the plate was covered with a plate sealer, and then spinned at 1000 rpm for 1 min, then incubated overnight at room temperature; the results were read on BMG PheraStar with HTRF protocol (337 nm-665 nm-620 nm).
The inhibition (degradation) percentage of the compound was calculated by the following equation: Inhibition percentage of Compound=100−100×(Signal-low control)/(High control-low control), wherein signal=each test compound group
High control=Cell group with added DMSO and without compound, indicating microplate readings without BTK degradation;
Dmax is the maximum percentage of inhibition (degradation).
The IC50 (DC50) value of a compound can be obtained by fitting the following equation
Y=Bottom+(TOP−Bottom)/(1+((IC50/X)^hillslope))
as §1, with “wherein,” for “Wherein,”

As to `NC(=O)c1c(-c2ccc(Oc3ccccc3)cc2)nn2c1Nc1ccc(NCC3CCN(c4ccc5c(c4)C(=O)N(C4CCC(=O)NC4=O)C5=O)CC3)cc1CC2` (centres unmarked) [Example A3, 7-(((1-(2-(2,6-dioxopiperidin-3-yl)-1,3-dioxoisoindolin-5-yl)piperidin-4-yl)methyl)amino)-2-(4-phenoxyphenyl)-9,10-dihydro-4H-benzo[d]pyrazolo[1,5-a][1,3]diazepine-3-carboxamide], the IC50 in the assay with HEK-293 cells is greater than 10000 nM. Besides, the DC50 on BTK is 20.6 nM.

Turning to `NC(=O)c1c(-c2ccc(Oc3ccccc3)cc2)nn2c1Nc1ccc(NC(=O)C3CCN(CC4CCN(c5ccc6c(c5)C(=O)N(C5CCC(=O)NC5=O)C6=O)CC4)CC3)cc1CC2` (centres unmarked) [Example A4, 7-(1-((1-(2-(2,6-dioxopiperidin-3-yl)-1,3-dioxoisoindolin-5-yl)piperidin-4-yl)methyl)piperidine-4-carboxamido)-2-(4-phenoxyphenyl)-9,10-dihydro-4H-benzo[d]pyrazolo[1,5-a][1,3]diazepine-3-carboxamide], the IC50 in the assay on HEK-293 cells is 78.1 nM. Also, the DC50 at BTK worked out at 1.26 nM.

As to `NC(=O)c1c(-c2ccc(Oc3ccccc3)cc2)nn2c1Nc1ccc(NC3CCN(CC4CCN(c5cc6c(cc5F)C(=O)N(C5CCC(=O)NC5=O)C6=O)CC4)CC3)cc1CC2` (centres unmarked) [Example A5, 7-((1-((1-(2-(2,6-dioxopiperidin-3-yl)-6-fluoro-1,3-dioxoisoindolin-5-yl)piperidin-4-yl)methyl)piperidin-4-yl)amino)-2-(4-phenoxyphenyl)-9,10-dihydro-4H-benzo[d]pyrazolo[1,5-a][1,3]diazepine-3-carboxamide], in the assay on HEK-293 cells, the IC50 amounted to 83.3 nM. In addition, the DC50 on BTK is 1.45 nM.

Turning to `NC(=O)c1c(-c2ccc(Oc3ccccc3)cc2)nn2c1Nc1ccc(N3CCN(CC4CCN(c5ccc6c(c5)C(=O)N(C5CCC(=O)NC5=O)C6=O)CC4)CC3)cc1CC2` (centres unmarked) [Example A6, 7-(4-((1-(2-(2,6-dioxopiperidin-3-yl)-1,3-dioxoisoindolin-5-yl)piperidin-4-yl)methyl)piperazin-1-yl)-2-(4-phenoxyphenyl)-9,10-dihydro-4H-benzo[d]pyrazolo[1,5-a][1,3]diazepine-3-carboxamide], the IC50 with HEK-293 cells was 163 nM. Also, the DC50 at BTK was 3.42 nM.

On to `NC(=O)c1c(-c2ccc(Oc3ccccc3)cc2)nn2c1Nc1ccc(N3CCN(c4ccc5c(c4)C(=O)N(C4CCC(=O)NC4=O)C5=O)CC3)cc1CC2` (centres unmarked) [Example A7, 7-(4-(2-(2,6-dioxopiperidin-3-yl)-1,3-dioxoisoindolin-5-yl)piperazin-1-yl)-2-(4-phenoxyphenyl)-9,10-dihydro-4H-benzo[d]pyrazolo[1,5-a][1,3]diazepine-3-carboxamide], for which the IC50 with HEK-293 cells worked out at 178 nM. The DC50 at BTK was 2.51 nM.

As for `NC(=O)c1c(-c2ccc(Oc3ccccc3)cc2)nn2c1Nc1ccc(NC3CCN(c4ccc5c(c4)C(=O)N(C4CCC(=O)NC4=O)C5=O)CC3)cc1CC2` (centres unmarked) [Example A8, 7-((1-(2-(2,6-dioxopiperidin-3-yl)-1,3-dioxoisoindolin-5-yl)piperidin-4-yl)amino)-2-(4-phenoxyphenyl)-9,10-dihydro-4H-benzo[d]pyrazolo[1,5-a][1,3]diazepine-3-carboxamide], in the assay with HEK-293 cells, the IC50 worked out at 280 nM. Half-maximal degradation at BTK (DC50) was put at 2.97 nM.

In the case of `NC(=O)c1c(-c2ccc(Oc3ccccc3)cc2)nn2c1Nc1ccc(C(=O)NC3CCN(c4ccc5c(c4)C(=O)N(C4CCC(=O)NC4=O)C5=O)CC3)cc1CC2` (centres unmarked) [Example A9, N7-(1-(2-(2,6-dioxopiperidin-3-yl)-1,3-dioxoisoindolin-5-yl)piperidin-4-yl)-2-(4-phenoxyphenyl)-9,10-dihydro-4H-benzo[d]pyrazolo[1,5-a][1,3]diazepine-3,7-dicarboxamide], the IC50 in the assay on HEK-293 cells is 65.6 nM. The same compound showed a DC50 on BTK of 2.26 nM.

The values above are taken from US20240246977A1, “DEGRADATION OF BRUTON'S TYROSINE KINASE (BTK) BY CONJUGATION OF BTK INHIBITORS WITH E3 LIGASE LIGAND AND METHOD OF USE” (BeiGene Switzerland GmbH, priority 2021, published 2024).
